Values quoted from earlier work as cited in patent US20110257192A1, “COMPOUND FOR TREATMENT OF RESPIRATORY CONDITION OR DISEASE” (BIOTA SCIENTIFIC MANAGEMENT PTY LTD, priority 2010, published 2011).

Conditions: administered orally

In the case of `Cc1cc(CCCOc2c(C)cc(-c3noc(C(F)(F)F)n3)cc2C)on1` [pleconaril], the “effect on asthma exacerbation” value is given as “did not have an effect on asthma exacerbation”.
